Laboratory results reported in PubChem BioAssay AID2060358 (Molecular Pharmacology Branch, DTP, NCI, 2025).
pIC50: −log10 of the molar value. Calls of active or inactive are those of the source. The calls were made as follows: active = viability on the fitted dose curve at most 10% of control; inactive = the rest.

Test system: 254851-301-R-J1-PDC spheroids, viability % test/control
Assay: Anticancer human tumor 254851-301-R-J1-PDC patient-derived colon carcinoma cell line growth inhibition [TAK]
Conditions: spheroids with HUVEC and MSC; for pIC50: curve of first compound; for viability, T/C: stronger effect = lower value
Text: Combinatorial screen of targeted agents with TAK-243 and ipatasertib in multi-cell type tumor spheroids
A high-throughput screen of multi-cell type tumor spheroids was designed to identify active combinations of targeted small molecules and TAK-243 or ipatasertib. Complex spheroids include a stromal component modeled by human endothelial cells (HUVEC) and fibroblasts modeled by human mesenchymal stem cells (MSCs). The concentration ranges selected for each drug and investigational agent were based upon clinically achievable concentrations if the clinical Cmax of the agent was known.
Compounds. The drugs and investigational agents: TAK-243 (785004), ipatasertib (767898), everolimus (733504), selumetinib (741078), bortezomib (756655), trametinib (758246), ixazomib (758254), vemurafenib (761431), dabrafenib (764134), sapanisertib (764658), alpelisib (765974), and copanlisib (816437), were obtained from the National Cancer Institute (NCI) Developmental Therapeutics Program Chemical Repository. The FDA-approved anticancer drug set is available from the NCI Developmental Therapeutics Program. […] The stock solutions were prepared in dimethyl sulfoxide (DMSO, Sigma-Aldrich, St. Louis, MO, cat. D2650) at 800-fold the tested concentration and stored at -70 degrees C prior to their use. All drugs and investigational agents were tested over a range starting from a high concentration at or near the clinical Cmax and decreasing in half-log increments. If the clinical Cmax for an agent had not been determined, the highest concentration tested was 10 microM.
NCI60 Cell Culture. NCI60 cell lines were obtained from the NCI Developmental Therapeutics Program Tumor Repository. For each lot of cells, the Repository performed Applied Biosystems AmpFLSTR Identifiler testing with PCR amplification to confirm consistency with the published Identifier STR profile for each cell line. Cells were kept in continuous culture for no more than 20 passages. The optimal seeding densities for each of the cell lines at each time point assessed were determined prior to performing the concentration response studies. Briefly, the NCI60 human tumor lines were grown as monolayers in RPMI 1640 medium supplemented with 10% FBS and 2 mmol/L L-glutamine.
An additional 2 lines were from the NCI60 cell line panel including melanomas, MALME-3M and SK-MEL-2. Pooled donor human umbilical vein endothelial cells (HUVEC, Lonza, cat. CC-2519) and human mesenchymal stem cells (hMSC, Lonza, cat. PT-2501) were purchased from Lonza (Walkersville, MD).
PDMR cell lines were grown in complete medium (DC medium): Dulbecco's modified Eagle's medium (DMEM)/F12 supplemented with 5% fetal bovine serum (FBS), 2 mM L-glutamine, 100 U/mL penicillin and 100 µg/ml streptomycin, 0.4 µg/ml hydrocortisone, 10 ng/ml epidermal growth factor (EGF) recombinant human protein, 24 µg/mL adenine, and 0.1 mg/mL primocin. During culture from frozen stock vials, PDMR cells were cultured in the same medium containing 10 µM Y-27632 (see Table 3). The PDCs were cultured in complete DMEM/F12 media without 10 microM Y-27632 dihydrochloride for at least two passages prior to the screen. The pooled donor HUVEC and hMSC were cultured in endothelial cell growth medium 2 (PromoCell, Heidelberg, Germany, cat. C-22011) and mesenchymal stem cell growth medium 2 (PromoCell, cat. C-28009), respectively. For all experiments, HUVEC and hMSC were used at passages </=5.
For the pre-screen, cell seeding densities were determined from a titration spanning the range from 5,000 to 313 cells per well. The mct-spheroids including 60% malignant cells, 25% HUVEC and 15% MSC dispensed as a mixture into U-bottom Ultra-Low Attachment 384-well plates (Corning, NY)
High-throughput Drug Combination Screening.
Prior to their inoculation into 384-well plates, malignant cells, HUVEC, and hMSC were removed from T flasks using TrypLE express (Thermo Fisher Scientific, cat. 12605036) and harvested by centrifugation for 5 min at 233 x g. […]
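For pIC50 in this document: spheroids exposed to drugs for seven days before viability readout.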
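For viability, T/C in this document: spheroids exposed to drugs for seven days before viability readout.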

Compound COC1CC2CCC(C)C(O)(O2)C(=O)C(=O)N2CCCCC2C(=O)OC(C(C)CC2CCC(OCCO)C(OC)C2)CC(=O)C(C)C=C(C)C(O)C(OC)C(=O)C(C)CC(C)C=CC=CC=C1C (stereo not given) + CC(C)NCC(C(=O)N1CCN(c2ncnc3c2C(C)CC3O)CC1)c1ccc(Cl)cc1 has a pIC50 (second compound 0.3 µM) of under 7.00, a pIC50 (second compound 0.949 µM) of under 7.00 and a pIC50 (second compound 3 µM) of under 7.00. The pIC50 (second compound 9.49 µM) was under 7.00, the pIC50 (second compound 30 µM) was under 7.00 and the viability, T/C (second compound 0.3 µM, first compound 0.000316 µM) was 108%. The viability, T/C (second compound 0.3 µM, first compound 0.001 µM) was 117%, the viability, T/C (second compound 0.3 µM, first compound 0.00316 µM) was 99.9% and the viability, T/C (second compound 0.3 µM, first compound 0.01 µM) was 99.2%. For the same compound, the viability, T/C (second compound 0.3 µM, first compound 0.0316 µM) was 96.8%, the viability, T/C (second compound 0.3 µM, first compound 0.1 µM) was 91.7% and the viability, T/C (second compound 0.949 µM, first compound 0.000316 µM) was 115%. The viability, T/C (second compound 0.949 µM, first compound 0.001 µM) was 110%, the viability, T/C (second compound 0.949 µM, first compound 0.00316 µM) was 100% and the viability, T/C (second compound 0.949 µM, first compound 0.01 µM) was 104%. For the same compound, the viability, T/C (second compound 0.949 µM, first compound 0.0316 µM) was 88.1%, the viability, T/C (second compound 0.949 µM, first compound 0.1 µM) was 91.4% and the viability, T/C (second compound 3 µM, first compound 0.000316 µM) was 102%. It also gave a viability, T/C (second compound 3 µM, first compound 0.001 µM) of 112%, a viability, T/C (second compound 3 µM, first compound 0.00316 µM) of 97% and a viability, T/C (second compound 3 µM, first compound 0.01 µM) of 94.2%. For the same compound, the viability, T/C (second compound 3 µM, first compound 0.0316 µM) was 92.1%, the viability, T/C (second compound 3 µM, first compound 0.1 µM) was 95.3% and the viability, T/C (second compound 9.49 µM, first compound 0.000316 µM) was 90.7%. The outcome (second compound 9.49 µM, first compound 0.001 µM) was “inactive”, the viability, T/C (second compound 9.49 µM, first compound 0.00316 µM) was 98% and the viability, T/C (second compound 9.49 µM, first compound 0.01 µM) was 95%. It also gave a viability, T/C (second compound 9.49 µM, first compound 0.0316 µM) of 96.2%, a viability, T/C (second compound 9.49 µM, first compound 0.1 µM) of 85.1% and a viability, T/C (second compound 30 µM, first compound 0.000316 µM) of 82.7%. The viability, T/C (second compound 30 µM, first compound 0.001 µM) was 95.2%, the viability, T/C (second compound 30 µM, first compound 0.00316 µM) was 86.4% and the viability, T/C (second compound 30 µM, first compound 0.01 µM) was 77%. It also gave a viability, T/C (second compound 30 µM, first compound 0.0316 µM) of 76.4% and a viability, T/C (second compound 30 µM, first compound 0.1 µM) of 77.2%.
